pEC50: −log10 of the molar value.
Molecular target: T1, PIEZO1 (SW982 cells) (Homo sapiens, UniProt Q92508)
T1 construct: endogenous full-length channel in native SW982 cells; response lost on PIEZO1 siRNA knockdown
Experiment: Fura-2 Ca2+ imaging
Format: cell-based
Settings: agonist; SBS with […] Ca2+, pH […]-26 °C; native SW982 cells, […] tested; bound only; read-out: apparent EC50

T1 sequence (Q92508 whole entry): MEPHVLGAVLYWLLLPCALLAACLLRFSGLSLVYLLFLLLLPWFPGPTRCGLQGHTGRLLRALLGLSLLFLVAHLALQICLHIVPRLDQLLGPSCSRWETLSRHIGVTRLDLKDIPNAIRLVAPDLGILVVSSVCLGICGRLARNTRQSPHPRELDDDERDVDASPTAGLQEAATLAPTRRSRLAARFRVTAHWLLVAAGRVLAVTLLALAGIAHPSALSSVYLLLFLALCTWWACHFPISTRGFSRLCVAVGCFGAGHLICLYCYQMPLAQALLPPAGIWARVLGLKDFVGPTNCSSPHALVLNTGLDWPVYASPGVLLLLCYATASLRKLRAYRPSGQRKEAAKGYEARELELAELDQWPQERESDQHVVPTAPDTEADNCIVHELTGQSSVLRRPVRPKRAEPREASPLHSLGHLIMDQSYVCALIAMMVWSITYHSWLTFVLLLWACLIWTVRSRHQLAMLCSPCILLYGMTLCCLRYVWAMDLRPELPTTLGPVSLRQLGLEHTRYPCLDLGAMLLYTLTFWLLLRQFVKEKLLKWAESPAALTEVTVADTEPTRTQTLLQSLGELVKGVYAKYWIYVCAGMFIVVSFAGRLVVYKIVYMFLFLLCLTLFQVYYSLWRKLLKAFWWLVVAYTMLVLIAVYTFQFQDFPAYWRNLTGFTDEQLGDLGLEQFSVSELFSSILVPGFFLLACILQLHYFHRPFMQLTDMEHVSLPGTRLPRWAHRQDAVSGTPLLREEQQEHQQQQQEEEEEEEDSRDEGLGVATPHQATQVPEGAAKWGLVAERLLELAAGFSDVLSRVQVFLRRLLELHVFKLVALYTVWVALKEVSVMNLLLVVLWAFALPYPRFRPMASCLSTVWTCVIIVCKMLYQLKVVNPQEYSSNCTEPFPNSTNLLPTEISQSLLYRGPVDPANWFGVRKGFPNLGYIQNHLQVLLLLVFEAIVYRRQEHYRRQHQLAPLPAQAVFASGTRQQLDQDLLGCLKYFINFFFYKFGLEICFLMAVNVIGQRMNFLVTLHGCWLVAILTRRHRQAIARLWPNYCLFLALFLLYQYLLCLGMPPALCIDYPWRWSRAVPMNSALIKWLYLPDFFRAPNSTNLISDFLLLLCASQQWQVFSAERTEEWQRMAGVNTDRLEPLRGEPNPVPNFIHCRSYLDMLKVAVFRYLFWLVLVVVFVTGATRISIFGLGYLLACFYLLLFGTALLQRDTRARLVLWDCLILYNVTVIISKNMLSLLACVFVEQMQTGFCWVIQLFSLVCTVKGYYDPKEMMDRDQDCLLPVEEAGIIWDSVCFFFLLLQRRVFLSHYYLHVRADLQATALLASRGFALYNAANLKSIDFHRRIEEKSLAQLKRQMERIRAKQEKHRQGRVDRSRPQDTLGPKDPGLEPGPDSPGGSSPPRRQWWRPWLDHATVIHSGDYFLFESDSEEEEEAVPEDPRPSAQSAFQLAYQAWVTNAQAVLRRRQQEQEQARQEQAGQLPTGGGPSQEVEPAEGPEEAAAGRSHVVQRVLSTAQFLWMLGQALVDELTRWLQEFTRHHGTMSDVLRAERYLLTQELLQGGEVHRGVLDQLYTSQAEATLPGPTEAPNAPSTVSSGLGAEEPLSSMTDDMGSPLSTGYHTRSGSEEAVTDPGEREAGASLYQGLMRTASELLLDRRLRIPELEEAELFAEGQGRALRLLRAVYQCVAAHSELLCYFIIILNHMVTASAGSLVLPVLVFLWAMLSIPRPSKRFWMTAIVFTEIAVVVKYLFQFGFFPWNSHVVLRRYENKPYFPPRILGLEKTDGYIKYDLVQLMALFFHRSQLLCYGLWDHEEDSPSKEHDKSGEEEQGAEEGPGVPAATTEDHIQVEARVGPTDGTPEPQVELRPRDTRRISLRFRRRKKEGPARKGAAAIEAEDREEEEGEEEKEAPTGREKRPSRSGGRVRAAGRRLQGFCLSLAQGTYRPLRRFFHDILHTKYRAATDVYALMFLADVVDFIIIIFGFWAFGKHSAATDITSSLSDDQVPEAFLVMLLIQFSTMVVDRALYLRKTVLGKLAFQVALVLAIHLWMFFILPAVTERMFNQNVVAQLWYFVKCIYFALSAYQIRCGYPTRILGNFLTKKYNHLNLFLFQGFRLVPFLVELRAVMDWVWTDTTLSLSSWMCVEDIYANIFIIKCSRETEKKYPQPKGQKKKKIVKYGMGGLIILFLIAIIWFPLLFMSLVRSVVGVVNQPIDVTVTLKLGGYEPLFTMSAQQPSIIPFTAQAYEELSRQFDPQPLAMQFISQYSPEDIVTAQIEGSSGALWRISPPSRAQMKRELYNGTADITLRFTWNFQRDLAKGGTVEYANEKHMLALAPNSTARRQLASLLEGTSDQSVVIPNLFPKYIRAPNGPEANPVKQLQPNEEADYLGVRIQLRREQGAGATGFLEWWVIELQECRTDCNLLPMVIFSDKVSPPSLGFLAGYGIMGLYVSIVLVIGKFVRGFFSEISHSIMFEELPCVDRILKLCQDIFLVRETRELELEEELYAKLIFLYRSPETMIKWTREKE

Compound: Clc1cccc(Cl)c1CSc1nnc(-c2cnccn2)s1 [Yoda1, 2-[5-[[(2,6-Dichlorophenyl)methyl]thio]-1,3,4-thiadiazol-2-yl]-pyrazine]
- pEC50: > 6.00

From publication PMC5983681, “PIEZO1 Channel Is a Potential Regulator of Synovial Sarcoma Cell-Viability” (International Journal of Molecular Sciences, 2018)
